According to patent publication US8933230B2, “Phosphorus-containing group-substituted quinoline, its preparation process, medical composition containing the compounds and application” (priority 2011, dated 2015):

Experiments:
Experiment in all cases: KinomeScan kinase panel
Type in all cases: binding
IKK-epsilon = molecular target: T1, IKK-epsilon (Homo sapiens, UniProt Q14164)
T1 construct: purchased DiscoveRx Corporation (KinomeScan)
Method in brief: (§1)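 Compound is added at 1000 nM to each assay of the KinomeScan 442-kinase panel. Inhibitory effect is then recorded per kinase.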

BMX = molecular target: T2, BMX (Homo sapiens, UniProt P51813)
T2 construct: purchased DiscoveRx Corporation (KinomeScan)
Method in brief: as §1

CDK4-cyclinD3 = molecular target: T3, CDK4-cyclinD3 (Homo sapiens, UniProt P11802)
T3 construct: purchased DiscoveRx Corporation (KinomeScan)
Method in brief: as §1

PIK3CA(C420R) = molecular target: T4, PIK3CA(C420R) (Homo sapiens, UniProt P42336, C420R)
T4 construct: purchased DiscoveRx Corporation (KinomeScan)
Method in brief: as §1

SRPK1 = molecular target: T5, SRPK1 (Homo sapiens, UniProt Q96SB4)
T5 construct: purchased DiscoveRx Corporation (KinomeScan)
Method in brief: as §1

CLK1 = molecular target: T6, CLK1 (Homo sapiens, UniProt P49759)
T6 construct: purchased DiscoveRx Corporation (KinomeScan)
Method in brief: as §1

CAMK1G = molecular target: T7, CAMK1G (Homo sapiens, UniProt Q96NX5)
T7 construct: purchased DiscoveRx Corporation (KinomeScan)
Method in brief: as §1

CSNK1G2 = molecular target: T8, CSNK1G2 (Homo sapiens, UniProt P78368)
T8 construct: purchased DiscoveRx Corporation (KinomeScan)
Method in brief: as §1

CDC2L1 = molecular target: T9, CDC2L1 (Homo sapiens, UniProt P21127)
T9 construct: purchased DiscoveRx Corporation (KinomeScan)
Method in brief: as §1

FLT3(R834Q) = molecular target: T10, FLT3(R834Q) (Homo sapiens, UniProt P36888, R834Q)
T10 construct: purchased DiscoveRx Corporation (KinomeScan)
Method in brief: as §1

YANK1 = molecular target: T11, YANK1 (Homo sapiens, UniProt Q8WU08)
T11 construct: purchased DiscoveRx Corporation (KinomeScan service)
Method in brief: as §1

MRCKB = molecular target: T12, MRCKB (Homo sapiens, UniProt Q9Y5S2)
T12 construct: purchased DiscoveRx Corporation (KinomeScan)
Method in brief: as §1

PIK3CG = molecular target: T13, PIK3CG (Homo sapiens, UniProt P48736)
T13 construct: purchased DiscoveRx Corporation (KinomeScan)
Method in brief: as §1

EGFR(L747-T751del,Sins) = molecular target: T14, EGFR(L747-T751del,Sins) (Homo sapiens, UniProt P00533, DEL747-750/T751S)
T14 construct: purchased DiscoveRx Corporation (KinomeScan)
Method in brief: as §1

PKN2 = molecular target: T15, PKN2 (Homo sapiens, UniProt Q16513)
T15 construct: purchased DiscoveRx Corporation (KinomeScan)
Method in brief: as §1

TNIK = molecular target: T16, TNIK (Homo sapiens, UniProt Q9UKE5)
T16 construct: purchased DiscoveRx Corporation (KinomeScan)
Method in brief: as §1

CAMK4 = molecular target: T17, CAMK4 (Homo sapiens, UniProt Q16566)
T17 construct: purchased DiscoveRx Corporation (KinomeScan)
Method in brief: as §1

KIT(D816V) = molecular target: T18, KIT(D816V) (Homo sapiens, UniProt P10721, D816V)
T18 construct: purchased DiscoveRx Corporation (KinomeScan)
Method in brief: as §1

PRKCQ = molecular target: T19, PRKCQ (Homo sapiens, UniProt Q04759)
T19 construct: purchased DiscoveRx Corporation (KinomeScan)
Method in brief: as §1

SRPK3 = molecular target: T20, SRPK3 (Homo sapiens, UniProt Q9UPE1)
T20 construct: purchased DiscoveRx Corporation (KinomeScan)
Method in brief: as §1

CDK3 = molecular target: T21, CDK3 (Homo sapiens, UniProt Q00526)
T21 construct: purchased DiscoveRx Corporation (KinomeScan)
Method in brief: as §1

KIT(V559D, V654A) = molecular target: T22, KIT(V559D, V654A) (Homo sapiens, UniProt P10721, V559D/V654A)
T22 construct: purchased DiscoveRx Corporation (KinomeScan)
Method in brief: as §1

PRKG2 = molecular target: T23, PRKG2 (Homo sapiens, UniProt Q13237)
T23 construct: purchased DiscoveRx Corporation (KinomeScan)
Method in brief: as §1

SNRK = molecular target: T24, SNRK (Homo sapiens, UniProt Q9NRH2)
T24 construct: purchased DiscoveRx Corporation (KinomeScan)
Method in brief: as §1

ERK4 = molecular target: T25, ERK4 (Homo sapiens, UniProt P31152)
T25 construct: purchased DiscoveRx Corporation (KinomeScan)
Method in brief: as §1

NEK3 = molecular target: T26, NEK3 (Homo sapiens, UniProt P51956)
T26 construct: purchased DiscoveRx Corporation (KinomeScan panel)
Method in brief: as §1

[1] = molecular target: T27, ABL1(H396P)-nonphosphorylated (Homo sapiens, UniProt P00519, H396P)
T27 construct: purchased DiscoveRx Corporation (KinomeScan)
Method in brief: as §1

PIM2 = molecular target: T28, PIM2 (Homo sapiens, UniProt Q9P1W9)
T28 construct: purchased DiscoveRx Corporation (KinomeScan)
Method in brief: as §1

EPHB4 = molecular target: T29, EPHB4 (Homo sapiens, UniProt P54760)
T29 construct: purchased DiscoveRx Corporation (KinomeScan)
Method in brief: as §1

[2] = molecular target: T30, RSK2(Kin.Dom.1-N-terminal) (Homo sapiens, UniProt P51812)
T30 construct: Kin.Dom.1; purchased DiscoveRx Corporation (KinomeScan)
Method in brief: as §1

DCAMKL1 = molecular target: T31, DCAMKL1 (Homo sapiens, UniProt O15075)
T31 construct: purchased DiscoveRx Corporation (KinomeScan)
Method in brief: as §1

FER = molecular target: T32, FER (Homo sapiens, UniProt P16591)
T32 construct: purchased DiscoveRx Corporation (KinomeScan)
Method in brief: as §1

EGFR(T790M) = molecular target: T33, EGFR(T790M) (Homo sapiens, UniProt P00533, T790M)
T33 construct: purchased DiscoveRx Corporation (KinomeScan)
Method in brief: as §1

BLK = molecular target: T34, BLK (Homo sapiens, UniProt P51451)
T34 construct: purchased DiscoveRx Corporation (KinomeScan)
Method in brief: as §1

EPHA1 = molecular target: T35, EPHA1 (Homo sapiens, UniProt P21709)
T35 construct: purchased DiscoveRx Corporation (KinomeScan)
Method in brief: as §1

T30 sequence (P51812 68-327 limits assumed): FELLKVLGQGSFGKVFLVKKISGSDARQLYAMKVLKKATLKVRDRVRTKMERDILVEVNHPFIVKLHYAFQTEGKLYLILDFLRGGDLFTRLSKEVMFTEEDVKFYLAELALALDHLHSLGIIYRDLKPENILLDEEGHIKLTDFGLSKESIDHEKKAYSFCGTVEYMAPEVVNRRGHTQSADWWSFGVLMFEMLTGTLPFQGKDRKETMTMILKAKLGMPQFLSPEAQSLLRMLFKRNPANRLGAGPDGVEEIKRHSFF
T20 sequence (Q9UPE1 whole entry): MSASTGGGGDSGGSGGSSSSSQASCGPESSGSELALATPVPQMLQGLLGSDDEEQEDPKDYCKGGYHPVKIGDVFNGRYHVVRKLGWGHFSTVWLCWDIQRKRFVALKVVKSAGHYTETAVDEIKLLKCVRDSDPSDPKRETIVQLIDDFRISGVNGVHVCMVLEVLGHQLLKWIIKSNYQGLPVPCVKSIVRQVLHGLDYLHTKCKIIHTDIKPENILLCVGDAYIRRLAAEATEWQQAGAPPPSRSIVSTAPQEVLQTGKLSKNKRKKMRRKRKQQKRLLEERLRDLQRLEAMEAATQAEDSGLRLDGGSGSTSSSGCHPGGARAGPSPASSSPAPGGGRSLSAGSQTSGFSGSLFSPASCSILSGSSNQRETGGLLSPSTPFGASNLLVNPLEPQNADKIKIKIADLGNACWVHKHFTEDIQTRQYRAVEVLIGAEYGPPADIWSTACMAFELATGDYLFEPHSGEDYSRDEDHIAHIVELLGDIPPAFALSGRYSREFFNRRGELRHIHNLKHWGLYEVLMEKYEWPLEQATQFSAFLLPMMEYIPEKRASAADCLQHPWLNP
T31 sequence (O15075 whole entry): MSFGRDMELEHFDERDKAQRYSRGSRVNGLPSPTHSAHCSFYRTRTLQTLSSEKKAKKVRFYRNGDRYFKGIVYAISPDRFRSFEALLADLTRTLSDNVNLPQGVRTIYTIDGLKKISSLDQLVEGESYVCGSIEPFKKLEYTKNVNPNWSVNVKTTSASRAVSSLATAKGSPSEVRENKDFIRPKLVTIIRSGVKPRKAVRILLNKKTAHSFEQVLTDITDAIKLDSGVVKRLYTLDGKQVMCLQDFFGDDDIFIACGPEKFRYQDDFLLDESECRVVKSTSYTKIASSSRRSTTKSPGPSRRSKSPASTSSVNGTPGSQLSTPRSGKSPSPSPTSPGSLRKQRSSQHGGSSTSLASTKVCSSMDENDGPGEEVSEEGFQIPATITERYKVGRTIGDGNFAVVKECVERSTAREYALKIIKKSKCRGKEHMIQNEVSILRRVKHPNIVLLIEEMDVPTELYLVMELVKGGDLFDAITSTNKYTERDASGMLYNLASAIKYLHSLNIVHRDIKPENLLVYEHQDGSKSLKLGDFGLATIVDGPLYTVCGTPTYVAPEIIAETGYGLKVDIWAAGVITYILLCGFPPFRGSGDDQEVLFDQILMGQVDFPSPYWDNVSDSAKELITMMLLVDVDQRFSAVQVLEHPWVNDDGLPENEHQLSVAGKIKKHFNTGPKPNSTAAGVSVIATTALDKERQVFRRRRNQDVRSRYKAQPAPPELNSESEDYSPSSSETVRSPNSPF
T34 sequence (P51451 whole entry): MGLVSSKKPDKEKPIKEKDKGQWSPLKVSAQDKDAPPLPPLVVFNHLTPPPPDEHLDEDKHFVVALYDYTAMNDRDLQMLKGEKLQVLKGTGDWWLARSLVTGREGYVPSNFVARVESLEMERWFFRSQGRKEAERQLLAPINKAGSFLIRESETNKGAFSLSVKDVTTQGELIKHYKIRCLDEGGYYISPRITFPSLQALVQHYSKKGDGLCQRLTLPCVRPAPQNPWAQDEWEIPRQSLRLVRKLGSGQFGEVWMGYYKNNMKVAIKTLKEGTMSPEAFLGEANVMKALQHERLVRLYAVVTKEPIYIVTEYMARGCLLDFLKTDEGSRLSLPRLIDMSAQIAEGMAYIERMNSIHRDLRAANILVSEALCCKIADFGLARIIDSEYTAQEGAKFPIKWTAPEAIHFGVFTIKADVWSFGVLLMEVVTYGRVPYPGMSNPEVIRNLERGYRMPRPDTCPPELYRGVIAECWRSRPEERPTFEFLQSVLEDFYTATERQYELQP
T19 sequence (Q04759 whole entry): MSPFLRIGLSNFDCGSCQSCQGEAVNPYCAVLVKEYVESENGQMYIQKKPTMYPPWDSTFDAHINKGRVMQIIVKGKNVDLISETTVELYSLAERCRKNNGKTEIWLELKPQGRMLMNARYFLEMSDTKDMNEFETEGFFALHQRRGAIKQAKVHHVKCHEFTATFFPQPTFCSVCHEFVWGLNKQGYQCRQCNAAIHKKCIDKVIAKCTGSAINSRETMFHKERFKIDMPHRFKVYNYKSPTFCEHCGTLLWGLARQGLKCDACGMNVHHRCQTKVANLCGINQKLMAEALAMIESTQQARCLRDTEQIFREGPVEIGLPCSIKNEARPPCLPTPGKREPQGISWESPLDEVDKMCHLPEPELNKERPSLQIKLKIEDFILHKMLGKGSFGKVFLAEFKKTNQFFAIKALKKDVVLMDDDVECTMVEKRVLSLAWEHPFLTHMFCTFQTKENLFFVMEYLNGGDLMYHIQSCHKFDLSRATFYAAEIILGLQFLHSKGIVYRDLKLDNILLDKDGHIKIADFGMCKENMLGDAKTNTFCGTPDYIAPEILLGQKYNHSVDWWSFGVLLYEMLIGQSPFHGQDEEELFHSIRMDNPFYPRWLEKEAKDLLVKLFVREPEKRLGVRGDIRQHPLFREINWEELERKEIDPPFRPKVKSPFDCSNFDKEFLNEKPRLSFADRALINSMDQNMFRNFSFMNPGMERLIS
T29 sequence (P54760 16-987): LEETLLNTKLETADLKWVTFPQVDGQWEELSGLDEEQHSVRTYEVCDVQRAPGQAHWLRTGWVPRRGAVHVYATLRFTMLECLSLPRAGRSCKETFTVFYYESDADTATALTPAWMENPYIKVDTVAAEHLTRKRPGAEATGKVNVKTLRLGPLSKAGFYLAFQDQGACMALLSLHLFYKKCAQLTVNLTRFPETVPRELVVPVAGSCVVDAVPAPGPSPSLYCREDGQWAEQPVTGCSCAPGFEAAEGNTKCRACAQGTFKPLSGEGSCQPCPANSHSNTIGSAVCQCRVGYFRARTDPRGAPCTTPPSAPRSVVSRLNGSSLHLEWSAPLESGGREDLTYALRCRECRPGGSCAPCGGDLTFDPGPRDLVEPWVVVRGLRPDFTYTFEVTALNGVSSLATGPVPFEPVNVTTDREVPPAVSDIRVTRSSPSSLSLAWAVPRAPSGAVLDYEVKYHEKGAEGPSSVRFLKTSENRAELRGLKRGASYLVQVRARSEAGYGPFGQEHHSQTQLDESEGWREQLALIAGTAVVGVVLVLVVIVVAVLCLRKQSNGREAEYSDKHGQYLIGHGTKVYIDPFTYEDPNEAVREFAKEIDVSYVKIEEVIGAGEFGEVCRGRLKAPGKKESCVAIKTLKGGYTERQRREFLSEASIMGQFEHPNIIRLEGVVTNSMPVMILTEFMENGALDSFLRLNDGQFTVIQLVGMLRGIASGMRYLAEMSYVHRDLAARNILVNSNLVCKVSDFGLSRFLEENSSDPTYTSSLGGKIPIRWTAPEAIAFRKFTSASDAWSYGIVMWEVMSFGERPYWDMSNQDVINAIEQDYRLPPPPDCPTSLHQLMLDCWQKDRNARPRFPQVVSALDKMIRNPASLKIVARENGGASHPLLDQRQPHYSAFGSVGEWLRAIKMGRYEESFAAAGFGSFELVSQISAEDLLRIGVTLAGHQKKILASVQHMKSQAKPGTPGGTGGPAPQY
T11 sequence (Q8WU08 whole entry): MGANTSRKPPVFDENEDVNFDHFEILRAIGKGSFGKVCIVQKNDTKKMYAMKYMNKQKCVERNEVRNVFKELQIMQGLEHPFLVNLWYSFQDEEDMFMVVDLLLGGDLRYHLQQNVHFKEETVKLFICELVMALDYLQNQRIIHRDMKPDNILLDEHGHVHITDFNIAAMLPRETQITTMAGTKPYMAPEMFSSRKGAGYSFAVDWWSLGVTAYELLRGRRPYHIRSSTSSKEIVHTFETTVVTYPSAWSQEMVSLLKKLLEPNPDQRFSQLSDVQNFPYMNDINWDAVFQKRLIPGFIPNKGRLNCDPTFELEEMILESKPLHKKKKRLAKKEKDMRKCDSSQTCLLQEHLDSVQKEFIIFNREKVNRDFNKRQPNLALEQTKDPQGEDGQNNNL
T3 sequence (P11802 whole entry): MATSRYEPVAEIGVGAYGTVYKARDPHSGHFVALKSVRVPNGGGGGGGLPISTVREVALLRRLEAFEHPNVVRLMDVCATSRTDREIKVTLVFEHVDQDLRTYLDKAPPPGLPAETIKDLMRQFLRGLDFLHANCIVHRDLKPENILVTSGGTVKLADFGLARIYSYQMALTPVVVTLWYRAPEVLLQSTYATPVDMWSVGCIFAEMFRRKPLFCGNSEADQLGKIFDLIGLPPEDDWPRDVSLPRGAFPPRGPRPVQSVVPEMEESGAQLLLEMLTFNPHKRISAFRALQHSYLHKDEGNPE
T3 sequence (P30281 whole entry partner): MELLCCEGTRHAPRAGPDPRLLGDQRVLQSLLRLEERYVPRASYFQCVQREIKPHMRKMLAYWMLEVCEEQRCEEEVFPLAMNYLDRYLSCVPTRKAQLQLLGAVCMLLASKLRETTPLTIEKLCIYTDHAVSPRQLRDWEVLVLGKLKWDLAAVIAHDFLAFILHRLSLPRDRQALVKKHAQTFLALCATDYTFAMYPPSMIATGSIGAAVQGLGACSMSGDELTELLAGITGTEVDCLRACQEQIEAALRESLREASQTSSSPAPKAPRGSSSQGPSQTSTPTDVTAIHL

Structure (SMILES): CCOP(=O)(CN1CCC(COc2cc3nccc(Oc4ccc(NC(=O)C5(C(=O)Nc6ccc(F)cc6)CC5)cc4F)c3cc2OC)CC1)OCC [Example 10, N1-[4-[[7-[[1-(diethoxyphosphorylmethyl)-4-piperidinyl]methoxyl]-6-methoxyl-4-quinolyl]oxyl]-3-fluorophenyl]-N1′-(4-fluorophenyl)cyclopropane-1,1-dicarboxamide]
- % Ctrl@1000 nM (IKK-epsilon): 94 % Ctrl
- % Ctrl@1000 nM (BMX): 92 % Ctrl
- % Ctrl@1000 nM (CDK4-cyclinD3): 100 % Ctrl
- % Ctrl@1000 nM (PIK3CA(C420R)): 100 % Ctrl
- % Ctrl@1000 nM (SRPK1): 70 % Ctrl
- % Ctrl@1000 nM (CLK1): 89 % Ctrl
- % Ctrl@1000 nM (CAMK1G): 88 % Ctrl
- % Ctrl@1000 nM (CSNK1G2): 100 % Ctrl
- % Ctrl@1000 nM (CDC2L1): 100 % Ctrl
- % Ctrl@1000 nM (FLT3(R834Q)): 16 % Ctrl
- % Ctrl@1000 nM (YANK1): 100 % Ctrl
- % Ctrl@1000 nM (MRCKB): 100 % Ctrl
- % Ctrl@1000 nM (PIK3CG): 100 % Ctrl
- % Ctrl@1000 nM (EGFR(L747-T751del,Sins)): 72 % Ctrl
- % Ctrl@1000 nM (PKN2): 2.6 % Ctrl
- % Ctrl@1000 nM (TNIK): 70 % Ctrl
- % Ctrl@1000 nM (CAMK4): 100 % Ctrl
- % Ctrl@1000 nM (KIT(D816V)): 18 % Ctrl
- % Ctrl@1000 nM (PRKCQ): 100 % Ctrl
- % Ctrl@1000 nM (SRPK3): 100 % Ctrl
- % Ctrl@1000 nM (CDK3): 100 % Ctrl
- % Ctrl@1000 nM (KIT(V559D, V654A)): 4.1 % Ctrl
- % Ctrl@1000 nM (PRKG2): 100 % Ctrl
- % Ctrl@1000 nM (SNRK): 100 % Ctrl
- % Ctrl@1000 nM (ERK4): 100 % Ctrl
- % Ctrl@1000 nM (NEK3): 58 % Ctrl
- % Ctrl@1000 nM [1]: 1.9 % Ctrl
- % Ctrl@1000 nM (PIM2): 67 % Ctrl
- % Ctrl@1000 nM (EPHB4): 12 % Ctrl
- % Ctrl@1000 nM [2]: 100 % Ctrl
- % Ctrl@1000 nM (DCAMKL1): 91 % Ctrl
- % Ctrl@1000 nM (FER): 50 % Ctrl
- % Ctrl@1000 nM (EGFR(T790M)): 100 % Ctrl
- % Ctrl@1000 nM (BLK): 0.5 % Ctrl
- % Ctrl@1000 nM (EPHA1): 4.6 % Ctrl
